Among the data in PMC6225485, “Computational screening of chalcones acting against topoisomerase IIα and their cytotoxicity towards cancer cell lines” (Journal of Enzyme Inhibition and Medicinal Chemistry, 2018) are IC50 values, retold here.

The target in this assay is T1, human topoisomerase IIα (rhTopoIIα ATPase domain) (Homo sapiens, UniProt P11388).
T1 construct: gene TOP2A; ATPase domain (45 kDa, recombinant, pET28b-hTopoIIα-ATPase)
Kind of assay: ADP-Glo ATPase assay with purified recombinant ATPase domain. The assay is classed as biochemical. Conditions: read-out: IC50 against rhTopoIIα ATPase domain. On the technique in general: In ADP-Glo the light output rises with the ADP produced.

Molecules are shown by their SMILES.

A word on the IC50: it is the concentration that gives 50% inhibition.

T1 sequence (P11388 29-428 limits assumed): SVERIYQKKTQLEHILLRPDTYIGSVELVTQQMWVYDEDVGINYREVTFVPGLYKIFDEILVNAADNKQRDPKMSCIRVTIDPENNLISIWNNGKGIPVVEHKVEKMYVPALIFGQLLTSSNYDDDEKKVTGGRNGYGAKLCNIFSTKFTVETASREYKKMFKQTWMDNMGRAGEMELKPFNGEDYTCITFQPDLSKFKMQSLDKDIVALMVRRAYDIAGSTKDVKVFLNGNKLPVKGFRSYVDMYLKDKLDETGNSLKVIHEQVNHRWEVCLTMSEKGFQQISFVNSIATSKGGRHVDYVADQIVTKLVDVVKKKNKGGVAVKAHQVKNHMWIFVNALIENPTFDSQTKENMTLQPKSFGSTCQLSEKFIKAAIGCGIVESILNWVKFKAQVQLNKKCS

Turning to `COc1cc(O)c(C(=O)/C=C/c2cc(OC)c(OC)c(OC)c2)c(OC)c1` [3d, chalcone 3d], the IC50 is 7.5 ± 4.2 nM.

With `Cc1ccc2c(c1CCC(O)C(C)(C)O)C(=O)C(=O)C(C(C)C)=C2` (centres unmarked) [Salvicine], the concentration for half-maximal inhibition (IC50) was 326 ± 6.6 nM.
